Results: patent US20240358748A1, “AMORPHOUS DISPERSION OF FERRIC MALTOL AND THE PREPARATION PROCESS THEREOF” (Indena S.P.A., priority 2021, published 2024)

Assay: Accelerated stability study (solid form checked by X-ray powder diffraction)
Type: physicochemical
Conditions: after 12 days at room temperature and relative humidity of 75%±5%
Protocol: The X-ray diffraction pattern was recorded on a Bruker D2-Phaser diffractometer. The X-ray generator was set to 30 kV and 10 mA, using Cuk as radiation source. The sample was prepared in a sample holder and irradiated for an irradiation length of 10 mm. The data were recorded between 2 and 50 2θ degrees every 0.02 2θ degrees, with a recording time of 3 seconds per 2θ degree.
The amorphous solid dispersion prepared according to Example 1, and ferric maltol in amorphous form, prepared according to the procedure reported in Example 1 but without the addition of Soluplus®, underwent an accelerated stability study.

With `Cc1occc(=O)c1[O-].Cc1occc(=O)c1[O-].Cc1occc(=O)c1[O-].[Fe+3]` [ferric maltol in amorphous form, 3-hydroxy-2-methyl-4H-pyran-4-one: iron (III) (3:1)] the “solid form after storage (X-ray diffractogram)” value was “attributable to ferric maltol Form I” and the “solid form after storage (X-ray diffractogram)” value (listed as ferric maltol) was “tends to be converted, at least partly, to a crystalline structure”.
